Assays:
Cytochrome P450 2D6 = Cytochrome P450 2D6 (Homo sapiens, UniProt P10635); assay: Inhibition of CYP2D6 (unknown origin) up to 50 uM; format: ADME
Cytochrome P450 2C9 = Cytochrome P450 2C9 (Homo sapiens, UniProt P11712); assay: Inhibition of CYP2C9 (unknown origin) up to 50 uM; format: ADME
Coagulation factor IX = Coagulation factor IX (Homo sapiens, UniProt P00740); assay: Inhibition of factor 9a (unknown origin)
Coagulation factor VII = biological target: T1, Coagulation factor VII (Homo sapiens, UniProt P08709); assay: Inhibition of factor 7a (unknown origin)
T1 sequence (P08709 whole entry): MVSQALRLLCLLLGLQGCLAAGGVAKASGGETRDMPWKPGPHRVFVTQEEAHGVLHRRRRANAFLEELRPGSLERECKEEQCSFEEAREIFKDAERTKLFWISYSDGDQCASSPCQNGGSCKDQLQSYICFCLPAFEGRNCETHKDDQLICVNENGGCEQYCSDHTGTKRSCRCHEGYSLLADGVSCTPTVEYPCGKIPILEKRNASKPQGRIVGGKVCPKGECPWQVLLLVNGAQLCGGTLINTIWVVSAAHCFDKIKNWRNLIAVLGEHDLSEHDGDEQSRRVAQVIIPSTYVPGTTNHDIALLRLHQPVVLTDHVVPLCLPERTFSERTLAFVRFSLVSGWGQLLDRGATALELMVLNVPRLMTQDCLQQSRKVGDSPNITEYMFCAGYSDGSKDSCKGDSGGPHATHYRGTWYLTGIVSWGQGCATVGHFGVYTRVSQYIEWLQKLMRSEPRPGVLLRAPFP

Coagulation factor X = Coagulation factor X (Homo sapiens, UniProt P00742); assay: Inhibition of factor 10a (unknown origin)
Coagulation factor X, sequence (P00742 41-179 limits assumed): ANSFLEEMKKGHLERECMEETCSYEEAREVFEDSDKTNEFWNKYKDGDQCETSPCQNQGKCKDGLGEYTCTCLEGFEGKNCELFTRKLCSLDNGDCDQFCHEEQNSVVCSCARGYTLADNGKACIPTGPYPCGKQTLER
Coagulation factor X, sequence (P00742 235-488 limits assumed): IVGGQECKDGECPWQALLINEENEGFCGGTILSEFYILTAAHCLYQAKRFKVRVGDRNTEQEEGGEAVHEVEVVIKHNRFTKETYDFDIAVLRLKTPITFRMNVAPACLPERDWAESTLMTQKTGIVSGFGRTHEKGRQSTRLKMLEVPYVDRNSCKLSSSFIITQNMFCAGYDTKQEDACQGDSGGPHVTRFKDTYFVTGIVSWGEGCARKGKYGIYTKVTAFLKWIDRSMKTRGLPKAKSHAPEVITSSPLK

Trypsin = Trypsin (Homo sapiens, UniProt P07477+P07478+P35030); assay: Inhibition of trypsin (unknown origin); format: protein assay
Coagulation factor XII = biological target: T2, Coagulation factor XII (Homo sapiens, UniProt P00748); assay: Inhibition of factor 12a (unknown origin)
T2 sequence (P00748 whole entry): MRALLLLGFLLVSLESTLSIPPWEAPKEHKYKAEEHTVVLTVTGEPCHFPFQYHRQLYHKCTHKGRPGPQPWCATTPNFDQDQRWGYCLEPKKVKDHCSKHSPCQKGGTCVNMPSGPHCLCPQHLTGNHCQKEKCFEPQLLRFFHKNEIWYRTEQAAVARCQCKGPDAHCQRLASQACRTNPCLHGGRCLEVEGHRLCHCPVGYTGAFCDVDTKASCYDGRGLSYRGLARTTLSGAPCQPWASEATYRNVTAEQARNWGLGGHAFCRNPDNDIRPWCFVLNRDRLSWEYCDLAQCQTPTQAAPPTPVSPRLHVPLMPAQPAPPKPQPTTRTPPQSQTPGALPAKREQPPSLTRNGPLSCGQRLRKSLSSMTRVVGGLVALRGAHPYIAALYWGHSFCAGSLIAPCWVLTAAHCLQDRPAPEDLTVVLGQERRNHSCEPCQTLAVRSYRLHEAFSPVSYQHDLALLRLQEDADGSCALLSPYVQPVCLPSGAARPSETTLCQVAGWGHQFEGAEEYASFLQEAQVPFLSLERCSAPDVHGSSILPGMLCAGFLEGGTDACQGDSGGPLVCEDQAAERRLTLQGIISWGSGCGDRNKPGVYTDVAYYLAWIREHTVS

Cytochrome P450 3A4 = Cytochrome P450 3A4 (Homo sapiens, UniProt P08684); assay: Inhibition of CYP3A4 (unknown origin) up to 50 uM; format: ADME
Cytochrome P450 3A4, sequence (P08684 whole entry): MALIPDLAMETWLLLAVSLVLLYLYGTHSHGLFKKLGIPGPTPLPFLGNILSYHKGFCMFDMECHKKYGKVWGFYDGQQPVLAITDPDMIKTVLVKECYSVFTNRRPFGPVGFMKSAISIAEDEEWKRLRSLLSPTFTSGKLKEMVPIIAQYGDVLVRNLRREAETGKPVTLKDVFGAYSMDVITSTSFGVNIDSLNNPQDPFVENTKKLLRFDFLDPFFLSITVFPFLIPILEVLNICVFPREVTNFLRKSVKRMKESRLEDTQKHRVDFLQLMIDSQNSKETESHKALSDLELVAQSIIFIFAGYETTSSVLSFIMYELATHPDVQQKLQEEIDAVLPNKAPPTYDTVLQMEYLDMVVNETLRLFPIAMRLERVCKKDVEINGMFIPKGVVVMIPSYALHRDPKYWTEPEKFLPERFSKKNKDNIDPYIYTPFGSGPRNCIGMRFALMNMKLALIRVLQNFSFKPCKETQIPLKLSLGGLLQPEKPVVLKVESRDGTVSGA

Prothrombin = Prothrombin (Homo sapiens, UniProt P00734); assay: Inhibition of thrombin (unknown origin)
[1] = Volume of distribution in dog at 0.3 mg/kg, iv; format: ADME, organism-based, Canis lupus familiaris; parameters: dose 0.3 mg/kg, route intravenous; conditions: in vivo
[2] = AUC in dog at 0.3 mg/kg, iv; format: ADME, organism-based, Canis lupus familiaris; parameters: dose 0.3 mg/kg, route intravenous; conditions: plasma
[3] = Clearance in dog at 0.3 mg/kg, iv; format: ADME, organism-based, Canis lupus familiaris; parameters: dose 0.3 mg/kg, route intravenous; conditions: in vivo
[4] = Metabolic stability in dog hepatocytes assessed as compound remaining after 90 mins; format: ADME, cell-based, Canis lupus familiaris, Hepatocyte; conditions: read-out: Stability
[5] = Half life in dog at 0.3 mg/kg, iv; format: ADME, organism-based, Canis lupus familiaris; parameters: dose 0.3 mg/kg, route intravenous; conditions: in vivo

Coagulation factor IX, sequence (P00740 47-191 limits assumed): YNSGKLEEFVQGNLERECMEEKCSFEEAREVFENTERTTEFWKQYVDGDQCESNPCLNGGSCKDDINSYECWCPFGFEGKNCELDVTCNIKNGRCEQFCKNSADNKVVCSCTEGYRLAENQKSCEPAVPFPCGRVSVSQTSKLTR
Coagulation factor IX, sequence (P00740 227-461 limits assumed): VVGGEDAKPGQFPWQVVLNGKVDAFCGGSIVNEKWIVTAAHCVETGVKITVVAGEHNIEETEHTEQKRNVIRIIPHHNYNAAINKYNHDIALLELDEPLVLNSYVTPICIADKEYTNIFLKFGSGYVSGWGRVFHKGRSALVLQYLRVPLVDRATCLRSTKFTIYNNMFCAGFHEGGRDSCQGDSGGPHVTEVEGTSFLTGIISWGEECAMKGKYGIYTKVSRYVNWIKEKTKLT
Cytochrome P450 2D6, sequence (P10635 whole entry): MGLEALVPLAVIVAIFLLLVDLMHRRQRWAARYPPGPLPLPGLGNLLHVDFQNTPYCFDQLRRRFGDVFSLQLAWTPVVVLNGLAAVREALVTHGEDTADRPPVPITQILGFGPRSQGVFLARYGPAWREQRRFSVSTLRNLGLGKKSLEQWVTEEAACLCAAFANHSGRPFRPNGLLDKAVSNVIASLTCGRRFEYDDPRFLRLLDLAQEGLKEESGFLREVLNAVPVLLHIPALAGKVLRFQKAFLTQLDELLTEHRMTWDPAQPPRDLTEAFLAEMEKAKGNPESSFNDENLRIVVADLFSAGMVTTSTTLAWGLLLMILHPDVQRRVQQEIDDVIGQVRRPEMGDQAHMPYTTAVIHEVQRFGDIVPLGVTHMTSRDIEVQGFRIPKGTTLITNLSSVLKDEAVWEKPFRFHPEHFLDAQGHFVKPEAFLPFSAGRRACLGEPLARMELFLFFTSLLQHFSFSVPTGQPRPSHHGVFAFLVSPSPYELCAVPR
Cytochrome P450 2C9, sequence (P11712 whole entry): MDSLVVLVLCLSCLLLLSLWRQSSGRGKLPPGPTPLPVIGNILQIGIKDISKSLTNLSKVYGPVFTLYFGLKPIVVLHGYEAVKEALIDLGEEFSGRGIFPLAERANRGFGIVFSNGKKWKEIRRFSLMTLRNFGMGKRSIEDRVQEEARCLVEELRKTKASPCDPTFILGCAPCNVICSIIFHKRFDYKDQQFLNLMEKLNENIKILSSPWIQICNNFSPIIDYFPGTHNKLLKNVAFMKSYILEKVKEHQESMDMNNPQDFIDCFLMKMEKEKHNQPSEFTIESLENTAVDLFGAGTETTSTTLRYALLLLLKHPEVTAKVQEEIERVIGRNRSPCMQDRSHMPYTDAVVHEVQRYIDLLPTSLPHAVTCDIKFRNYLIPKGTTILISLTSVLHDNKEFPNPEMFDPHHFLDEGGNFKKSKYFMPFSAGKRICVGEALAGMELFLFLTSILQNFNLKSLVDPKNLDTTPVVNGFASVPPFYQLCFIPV

| SMILES | inhibition (INH) (Cytochrome P450 2D6) | inhibition (INH) (Cytochrome P450 2C9) | Ki (Coagulation factor IX) [µM] | Ki (Coagulation factor VII) [µM] | Ki (Coagulation factor X) [µM] | Ki (Trypsin) [µM] | Ki (Coagulation factor XII) [µM] | inhibition (INH) (Cytochrome P450 3A4) | Ki (Prothrombin) [µM] | Vd [1] [L/kg] | AUC [2] [µM·h] | clearance [3] [mL/min/kg] | remaining at 1.5 h [4] [%] | half-life [5] [h] |
| --- | --- | --- | --- | --- | --- | --- | --- | --- | --- | --- | --- | --- | --- | --- |
| CC(C)(C)[C@@H](O)C(=O)N1CCNC[C@H]1C(=O)NCc1cc(Cl)ccc1CN.O=C(O)C(F)(F)F | Not Active | Not Active | 15 | > 15 | 4.4 | 15 | > 15 | Not Active | – | – | – | – | – | – |
| CN1CCN(C(=O)[C@H](O)C(C)(C)C)[C@H](C(=O)NCc2cc(Cl)ccc2CN)C1.O=C(O)C(F)(F)F | Not Active | Not Active | – | > 15 | 3.7 | 15 | > 15 | Not Active | – | – | – | – | – | – |
| CC(C)(C)[C@@H](O)C(=O)N1CCS(=O)(=O)C[C@H]1C(=O)NCc1cc(Cl)ccc1CN.O=C(O)C(F)(F)F | Not Active | Not Active | – | > 15 | 3.1 | 15 | > 15 | Not Active | – | – | – | – | – | – |
| CC(C)(C)[C@@H](O)C(=O)N1CC[S+]([O-])C[C@H]1C(=O)NCc1cc(Cl)ccc1CN.O=C(O)C(F)(F)F (stereo partly specified) | Not Active | Not Active | – | – | – | – | – | Not Active | – | – | – | – | – | – |

Continued, values first:

| inhibition (INH) (Cytochrome P450 2D6) | inhibition (INH) (Cytochrome P450 2C9) | Ki (Coagulation factor IX) [µM] | Ki (Coagulation factor VII) [µM] | Ki (Coagulation factor X) [µM] | Ki (Trypsin) [µM] | Ki (Coagulation factor XII) [µM] | inhibition (INH) (Cytochrome P450 3A4) | Ki (Prothrombin) [µM] | Vd [1] [L/kg] | AUC [2] [µM·h] | clearance [3] [mL/min/kg] | remaining at 1.5 h [4] [%] | half-life [5] [h] | SMILES |
| --- | --- | --- | --- | --- | --- | --- | --- | --- | --- | --- | --- | --- | --- | --- |
| Not Active | Not Active | > 3 | > 15 | 1.4 | 5.6 | > 15 | Not Active | 0.0015 | 1.9 | 10 | 3.5 | 93 | 6.8 | CC(C)(C)[C@@H](O)C(=O)N1CCC[C@H]1C(=O)NCc1cc(Cl)ccc1CN.O=C(O)C(F)(F)F |
| Not Active | Not Active | – | > 15 | 1.8 | 10.6 | > 15 | Not Active | – | – | – | – | – | – | CC(C)(C)[C@@H](O)C(=O)N1CCCC[C@H]1C(=O)NCc1cc(Cl)ccc1CN.O=C(O)C(F)(F)F |
| Not Active | Not Active | – | > 15 | 0.9 | 9.4 | > 15 | Not Active | – | 2.3 | 1 | 12.8 | 76 | 2.7 | CC(C)(C)[C@@H](O)C(=O)N1CCSC[C@H]1C(=O)NCc1cc(Cl)ccc1CN.O=C(O)C(F)(F)F |
| Not Active | Not Active | 15 | > 15 | 3.9 | 15 | > 15 | Not Active | – | – | – | – | – | – | CC(C)(C)[C@@H](O)C(=O)N1CCOC[C@H]1C(=O)NCc1cc(Cl)ccc1CN.O=C(O)C(F)(F)F |

Reference: ChEMBL document CHEMBL3112494, “Heterocyclic core analogs of a direct thrombin inhibitor” (Bioorg Med Chem Lett, 2014)
